Converted amounts (≈) assume the structure as drawn. “And” between values parts separate entries of the source, which are not always exact repeats. Equal values may be shown once.
Columns and labels:
Test in all cases: ≥ marks a high value that may be exact or a test limit, other limits are often not marked, values filed in µg/mL are converted to µM
[1] = tested on: Pseudomonas aeruginosa 5167
[2] = tested on: Pseudomonas aeruginosa 1570
[3] = tested on: Bacillus subtilis KCTC 1998
[4] = tested on: Staphylococcus aureus ATCC 29213
[5] = tested on: Escherichia coli CCARM 1238
[6] = tested on: Proteus vulgaris KCTC 2433
[7] = tested on: Staphylococcus epidermidis ATCC 12228
[8] = tested on: Escherichia coli ATCC 25922
[9] = tested on: Pseudomonas aeruginosa ATCC 15692
[10] = tested on: Pseudomonas aeruginosa 4007
[11] = tested on: Listeria monocytogenes ATCC 3710
[12] = tested on: Pseudomonas aeruginosa 3543
[13] = tested on: Staphylococcus aureus 3518
[14] = tested on: Bacillus subtilis ATCC 23857
[15] = tested on: Pectobacterium carotovorum
[16] = tested on: Pseudomonas aeruginosa ATCC 27853
[17] = tested on: Staphylococcus aureus ATCC 25923
[18] = tested on: Xanthomonas campestris pv. citri
[19] = tested on: Bacillus cereus ATCC 14579
[20] = tested on: Ramulariopsis gossypii
[21] = tested on: Cryptococcus neoformans ATCC 28957
[22] = tested on: Trichoderma asperellum
[23] = tested on: Candida albicans ATCC 90028
[24] = tested on: Pseudomonas syringae pv. tabaci
[25] = tested on: Fusarium oxysporum f.sp. vasinfectum
[26] = tested on: Fusarium oxysporum
[27] = tested on: Fusarium solani
[28] = tested on: Candida krusei CBS 573
[29] = tested on: Candida parapsilosis CBS 604
[30] = tested on: Saccharomyces cerevisiae SZMC 0644
[31] = tested on: Candida albicans ATCC 10231
[32] = tested on: Aspergillus niger CECT 2694
[33] = tested on: Erwinia amylovora PMV 6076
[34] = tested on: Fusarium oxysporum f. sp. lycopersici ATCC 201829
[35] = tested on: Xanthomonas vesicatoria 2133-2
[36] = tested on: Penicillium expansum EPS 26
[37] = tested on: Candida albicans ATCC 64550
[38] = tested on: Rhizopus stolonifer CECT 2344
[39] = tested on: Escherichia coli DH5alpha
[40] = tested on: Saccharomyces cerevisiae FY1679
[41] = tested on: Penicillium digitatum PHI-26
[42] = tested on: Pseudomonas syringae EPS 94
[43] = tested on: Staphylococcus aureus LAC

Question: How did the MIC [1] turn out when `CC(C)C[C@H](NC(=O)[C@H](CC(C)C)NC(=O)[C@H](CCCCN)NC(=O)[C@H](CCCCN)NC(=O)[C@H](CC(C)C)NC(=O)[C@H](CC(C)C)NC(=O)[C@H](C)NC(=O)[C@H](CC(C)C)NC(=O)[C@@H](N)Cc1ccccc1)C(N)=O` [FLALLKKLL] was run?
Answer: The MIC was at least 42.8 µM.

Question: And the MIC [2]?
Answer: The MIC was 10.7 µM (≈ 11.3 µg/mL).

Question: Which MIC [3] does the source give for `CC[C@H](C)[C@H](NC(=O)[C@H](Cc1ccccc1)NC(=O)[C@H](CCCN=C(N)N)NC(=O)[C@H](CC(C)C)NC(=O)[C@@H](N)Cc1ccccc1)C(=O)NCC(=O)N[C@@H](CO)C(=O)N[C@H](C(=O)N[C@@H](CCCCN)C(=O)N[C@@H](Cc1cnc[nH]1)C(=O)NCC(=O)N[C@@H](CCCCN)C(=O)NCC(=O)N[C@@H](Cc1cnc[nH]1)C(=O)N[C@@H](CC(C)C)C(=O)N[C@H](C(=O)N[C@@H](Cc1cnc[nH]1)C(=O)N[C@@H](Cc1cnc[nH]1)C(=O)N[C@H](C(=O)NCC(=O)N[C@H](C(=O)N[C@@H](C)C(=O)N[C@@H](CC(C)C)C(N)=O)C(C)C)[C@@H](C)CC)C(C)C)C(C)C` [FLRFIGSVKHGKGHLVHHIGVAL] here?
Answer: Its MIC is 4 µM (≈ 10.1 µg/mL).

Question: What about the MIC [4] of the same compound?
Answer: The MIC was 8 µM (≈ 20.2 µg/mL).

Question: What about the MIC [5] of the same compound?
Answer: Its MIC is 2 µM (≈ 5.04 µg/mL).

Question: And the MIC [6]?
Answer: Its MIC is 4 µM and 8 µM.

Question: And the MIC [7]?
Answer: Its MIC is 4 µM and 8 µM.

Question: And the MIC [8]?
Answer: The MIC was 2 µM and 4 µM.

Question: What about the MIC [9] of the same compound?
Answer: The MIC was at least 32 µM.

Question: What about the MIC [10] of the same compound?
Answer: The MIC was 2 µM (≈ 5.04 µg/mL).

Question: What about the MIC [11] of the same compound?
Answer: Its MIC is 4 µM (≈ 10.1 µg/mL).

Question: What about the MIC [12] of the same compound?
Answer: Its MIC is 4 µM (≈ 10.1 µg/mL).

Question: And the MIC [13]?
Answer: Its MIC is 8 µM (≈ 20.2 µg/mL).

Question: For `CSCC[C@H](NC(=O)[C@H](Cc1ccccc1)NC(=O)CNC(=O)[C@H](Cc1cnc[nH]1)NC(=O)[C@H](CC(C)C)NC(=O)[C@H](CO)NC(=O)CN)C(=O)N[C@@H](Cc1ccc(O)cc1)C(=O)N[C@@H](CCCCN)C(=O)N[C@@H](Cc1ccc(O)cc1)C(=O)N[C@@H](CC(C)C)C(=O)N[C@@H](CCCCN)C(=O)N[C@@H](CC(N)=O)C(=O)N[C@@H](CCSC)C(=O)N[C@H](C(=O)N[C@@H](CC(C)C)C(=O)N[C@@H](CC(N)=O)C(=O)N[C@@H](CC(C)C)C(=O)N[C@@H](Cc1ccccc1)C(N)=O)C(C)C` [GSLHGFMYKYLKNMVLNLF], which MIC [14] is on record?
Answer: The MIC was 16 µM (≈ 36.4 µg/mL).

Question: What about the MIC [15] of the same compound?
Answer: Its MIC is at least 128 µM.

Question: What about the MIC [16] of the same compound?
Answer: The MIC was 26.7 µM (≈ 60.7 µg/mL).

Question: And the MIC [17]?
Answer: Its MIC is 13.3 µM (≈ 30.3 µg/mL).

Question: And the MIC [18]?
Answer: Its MIC is at least 64 µM.

Question: And the MIC [19]?
Answer: The MIC was at least 64 µM.

Question: What about the MIC [20] of the same compound?
Answer: The MIC was 4 µM (≈ 9.1 µg/mL).

Question: What about the MIC [8] of the same compound?
Answer: The MIC was 32 µM (≈ 72.8 µg/mL).

Question: What about the MIC [21] of the same compound?
Answer: Its MIC is 10.7 µM (≈ 24.3 µg/mL).

Question: What about the MIC [22] of the same compound?
Answer: The MIC was 6.67 µM (≈ 15.2 µg/mL).

Question: What about the MIC [23] of the same compound?
Answer: Its MIC is 4 µM (≈ 9.1 µg/mL).

Question: And the MIC [24]?
Answer: The MIC was 16 µM (≈ 36.4 µg/mL).

Question: And the MIC [25]?
Answer: The MIC was 16 µM (≈ 36.4 µg/mL).

Question: What about the MIC [26] of the same compound?
Answer: Its MIC is 16 µM (≈ 36.4 µg/mL).

Question: And the MIC [27]?
Answer: The MIC was at least 32 µM.

Question: Which MIC [28] does the source give for `CC[C@H](C)[C@H](N)C(=O)N[C@@H](C)C(=O)N[C@H](C(=O)N[C@@H](CO)C(=O)N1CCC[C@H]1C(=O)N[C@@H](Cc1ccc(O)cc1)C(=O)N[C@@H](Cc1ccc(O)cc1)C(=O)N[C@@H](C)C(=O)N[C@H]1CSSC[C@@H](C(=O)O)NC(=O)CNC(=O)[C@H](CO)NC(=O)CNC(=O)[C@H](CCCCN)NC(=O)[C@H](CCCCN)NC(=O)[C@H](Cc2cnc[nH]2)NC(=O)[C@H](CCCCN)NC(=O)[C@@H]2CSSC[C@H](NC(=O)[C@H](CC(N)=O)NC1=O)C(=O)N1CCC[C@H]1C(=O)N[C@@H](CC(N)=O)C(=O)N[C@@H](CC(N)=O)C(=O)N2)[C@@H](C)O` [IATSPYYACNCPNNCKHKKGSGC] here?
Answer: Its MIC is 20.3 µM (≈ 49.9 µg/mL).

Question: And the MIC [29]?
Answer: The MIC was 20.3 µM (≈ 49.9 µg/mL).

Question: And the MIC [30]?
Answer: Its MIC is 20.3 µM (≈ 49.9 µg/mL).

Question: What about the MIC [31] of the same compound?
Answer: Its MIC is 20.3 µM (≈ 49.9 µg/mL).

Question: Which results are given for `CC[C@H](C)[C@H](NC(=O)[C@H](CCCCN)NC(=O)[C@H](CCCCN)NC(=O)[C@H](Cc1ccccc1)NC(=O)[C@H](CC(C)C)NC(=O)[C@H](CCCCN)NC(=O)[C@@H](N)CCCCN)C(=O)N[C@@H](CC(C)C)C(=O)N[C@@H](CCCCN)C(=O)N[C@@H](Cc1ccccc1)C(=O)N[C@@H](CC(C)C)C(N)=O` [KKLFKKILKFL]?
Answer: MIC [32]: 22.4 µM (≈ 31.4 µg/mL); MIC [33]: 3.16 µM (≈ 4.44 µg/mL); MIC [34]: 0.849 µM (≈ 1.19 µg/mL); MIC [35]: 3.16 µM (≈ 4.44 µg/mL); MIC [36]: ≥ 35.4 µM; MIC [37]: 25 µM (≈ 35.1 µg/mL); MIC [38]: ≥ 35.4 µM; MIC [39]: 4 µM (≈ 5.62 µg/mL); MIC [40]: 16 µM (≈ 22.5 µg/mL); MIC [41]: 4 µM (≈ 5.62 µg/mL); MIC [42]: 3.16 µM (≈ 4.44 µg/mL)

Question: For `CC(C)C[C@H](NC(=O)[C@H](CC(C)C)NC(=O)[C@H](CC(C)C)NC(=O)[C@@H](N)CC(C)C)C(=O)N[C@@H](CCCN=C(N)N)C(=O)N[C@@H](CCCN=C(N)N)C(=O)N[C@@H](CCCN=C(N)N)C(=O)N[C@@H](CCCN=C(N)N)C(=O)O` [LLLLRRRR], which MIC [43] is on record?
Answer: The MIC was at least 117 µM.

Question: And the MIC [8]?
Answer: Its MIC is over 117 µM.
